Like-named read-outs stand apart in the source and are kept apart here.
Experiments:
Con A-induced dry eye = Con A-induced dry eye disease (DED) in rabbits: TBUT, tear osmolarity, STT, tear lactoferrin; assay type: in vivo, New Zealand White (NZW) rabbits
Protocol: Con A was injected under ultrasound guidance into all the lacrimal glands and the success of the injection was verified by a post-injection ultrasound image (see FIG. 1 and FIG. 2). […] This variation explains why the blind injections recommended in the original method are often unsuccessful. This was confirmed by mixing the Con A solution with methylene blue and tracking its course after injection. In about ⅓ of the cases, Con A ended up outside the gland.
Four parameters of efficacy were evaluated instead of the usual one or two. They include (a) the tear break up time (TBUT), determined using 0.2% fluorescein over the eye and recording the time taken to develop black dots, lines or obvious disruption of the fluorescein film; (b) tear osmolarity, measured using TearLab Osmolarity Test and following the manufacturer's instructions (TearLab Corp., San Diego, Calif.); (3) Schirmer tear test (STT), determined using Schirmer strips (EagleVision, Denville, N.J.) inserted between the cornea and the palpebral conjunctiva at the mid-point of the lower lid and measuring the length of moistened strip at 5 min; and (4) tear lactoferrin levels measured by ELISA kit (MyBiosource, San Diego, Calif.) following the instructions of the manufacturer. All four have been used in clinical practice and correlate with the clinical activity of the disease. The STT is the least reliable and, as result, it is clinically used less than half as frequently as TBUT.
The injections of Con A to the lacrimal glands were repeated weekly as needed. When longer than a 1-week periods of study are needed, repeat injections prolong dry eye for at least 3 weeks, making the originally acute model chronic.
PS Suppresses Con A—Induced Dry Eye in Rabbits. The effect of PS on dry eye was determined in New Zealand White (NZW) rabbits, 2-3 kg (Charles River Labs, Waltham, Mass.). These rabbits were housed singly in rooms with strict temperature (70±5° F.) and humidity (45±5%) control and acclimated for at least 2 weeks prior to induction of dry eye by injection of Con A as above. NZW rabbits with Con A-induced dry eye (three sets of injections) were treated with PS formulated as nanoparticles and administered topically as eye drops 3×/day for 21 days, starting on the day of Con A injection. […] Similar results were obtained on days 5 and 14 (data not shown). […]
The efficacy of lower concentrations of PS. The efficacy of lower concentrations of PS, 0.1% and 0.2% in DED, was also evaluated. The same animal model (rabbits with Concanavalin A-induced DED) was used. The same methodology described herein was followed, except that PS was administered as two eye drops per eye (˜25 μL each) four times a day. PS was formulated in: 10% (2-hydroxypropyl)-β-cyclodextrin, 4% Tween 80, 2.5% Vitamin E TPGS, 1.4% polyvinyl alcohol (13,000-26,000 molecular weight), 0.001% polyquad, as described herein. The Table below summarizes the corresponding findings: […]

[1] = Rabbit ocular PK study of PS emulsion (2% PS); assay type: in vivo, New Zealand rabbits; conditions: 2% PS emulsion
Protocol: A formulation includes 2% PS; 5% Propylene glycol, 10% Mineral oil, 4% Tween 60, 4% Tween 80, 10% (2-hydroxypropyl)-β-cyclodextrin (HP-β-CD). Preparation method (2 mL scale): Oil phase: weight PS into glass vial, add propylene glycol, stir at 50° C. to obtain a clear solution. Then add mineral oil, stir to obtain a clear solution. Water phase: Dissolve HP-β-CD, […] and Tween 80 into water. Add water phase into oil phase, probe-sonicate for 5 sec, 8 times, with 5 sec intervals. Resultant emulsion is filtrated through 0.22 μm filter.
Rabbit ocular pharmacokinetic (PK) study: PS was administered to New Zealand rabbits topically to the eye; as three 25 μL eye drops, 5 min apart. Rabbits were euthanized at eight specified time points between 0.25 to 16 h, ocular tissues were dissected and PS was extracted with acetonitrile and its tissue levels as well as those of its metabolites were determined by HPLC as described (Xie G. et al., Br J Pharmacol 165:2′52-2166; 2012).

[2] = Ocular PK study of PS nanoparticles (mPEG-PLA), topical eye drops; assay type: in vivo, New Zealand white rabbits; parameters: AUC(0-t) / AUC0-16h, cornea / AUC0-16h, conjunctiva: concentration or dose not given beside the values; conditions: for AUC(0-t) / Cmax: New Zealand white, rabbit, topical or ocular
Protocol: Composition: ˜3.0-3.5% PS, 96.5˜97% methoxy poly(ethylene glycol)-poly(lactide) (mPEG-PLA).
Preparation Method: Oil phase: 150 mg of PS and 1 g of PEG-PLA (Akina, Inc) were dissolved in 20 mL dichloromethane (DCM). Water phase: 365 mg of sodium cholate were dissolved in 60 ml of purified water. 5 mL of the oil phase was gently added into 15 mL of the water phase in a 50 mL Eppendorf conical tube. To create an emulsion, we used robe sonication for 2 min at 75% output (Branson 150, Fisher Scientific™, USA); the watt output was 12-13. The emulsion was transferred into a 100 mL beaker and stirred overnight at 600 rpm in a chemical hood until the DCM was fully evaporated. This was followed by centrifugation at 14,000 rpm for 1 h (Dupont, RC-5C). Then, the supernatant was transferred to another tube into which 3 mL of PBS were added to resuspend the nanoparticles. The nanoparticle solution was centrifuged for 6-7 seconds to remove aggregates. This supernatant was the final preparation.
Ocular PK study: PS formulated in nanoparticles as above was administered topically as eye drops to New Zealand white rabbits. The biodistribution of PS in ocular tissues at the indicated time points post administration was determined by HPLC.

[3] = 1 week of treatment, comparison with ophthalmic NSAIDs (FIG. 5)
[4] = PS 0.1%, two eye drops four times a day, Baseline, mean ± SEM (n = 12)
[5] = PS 0.1%, two eye drops four times a day, Day 5, mean ± SEM (n = 12)
[6] = PS 0.2%, two eye drops four times a day, Baseline, mean ± SEM (n = 12)
[7] = PS 0.2%, two eye drops four times a day, Day 5, mean ± SEM (n = 12)
[8] = PS nanoparticles, eye drops 3x/day for 21 days
[9] = three 25 μL eye drops, PS and its metabolites

What does the source list for `CCOP(=O)(OCC)OCCCCOC(=O)CC1=C(C)/C(=C/c2ccc([S+](C)[O-])cc2)c2ccc(F)cc21` (stereo not shown) [PS, phosphosulindac]?
STT (Con A-induced dry eye; [3]): no significant effect; TBUT (Con A-induced dry eye; [3]): normalized; osmolarity (Con A-induced dry eye; [3]): normalized; STT (Con A-induced dry eye; [4]): 16.4 ± 1.5 mm; TBUT (Con A-induced dry eye; [4]): 57.9 ± 1.5 s; STT (Con A-induced dry eye; [5]): 12.0 ± 0.8 mm; TBUT (Con A-induced dry eye; [5]): 45.4 ± 5.2 s; STT (Con A-induced dry eye; [6]): 15.9 ± 1.0 mm; TBUT (Con A-induced dry eye; [6]): 57.9 ± 2.1 s; STT (Con A-induced dry eye; [7]): 11.8 ± 0.9 mm; TBUT (Con A-induced dry eye; [7]): 45.7 ± 4.5 s; TBUT (Con A-induced dry eye; [8]): restored to normal; tear lactoferrin levels (Con A-induced dry eye; [8]): restored to normal; tear osmolarity (Con A-induced dry eye; [8]): restored to normal; STT value (Con A-induced dry eye; PS nanoparticles, eye drops 3x/day for 21 days, difference from vehicle significant only for trend): improved; PS in the retina ([1]; eye drops): no PS was detected; Cmax, aqueous humor [1, 9]: 0.9 μm; Cmax, conjunctiva [1, 9]: 33.6 μm; Cmax, cornea [1, 9]: 85.4 μm; AUC(0-t) ([1]; New Zealand, rabbit, iris and ciliary body, topical or ocular, eye drops, read-out: AUC0-16 h in the iris and ciliary body): < 4 µM·h; AUC(0-t) ([2]; aqueous humor, read-out: AUC0-16 h, Aqueous humor): 3.4 µM·h; Cmax ([2]; aqueous humor, read-out: Cmax, Aqueous humor): 2.6 µM; AUC(0-t) ([2]; ciliary body, read-out: AUC0-16 h, Ciliary body): 3.6 µM·h; Cmax ([2]; ciliary body, read-out: Cmax, Ciliary body): 2.6 µM; AUC(0-t) ([2]; conjunctiva, read-out: AUC0-16 h, Conjunctiva): 61.7 µM·h; Cmax ([2]; conjunctiva, read-out: Cmax, Conjunctiva): 26.7 µM; AUC(0-t) ([2]; cornea, read-out: AUC0-16 h, Cornea): 156 µM·h; Cmax ([2]; cornea, read-out: Cmax, Cornea): 101 µM; AUC(0-t) ([2]; iris, read-out: AUC0-16 h, Iris): 13.6 µM·h; Cmax ([2]; iris, read-out: Cmax, Iris): 5.2 µM; AUC(0-t) ([2]; sclera, read-out: AUC0-16 h, Sclera): 3.3 µM·h; Cmax ([2]; sclera, read-out: Cmax, Sclera): 2.1 µM; Cmax, conjunctiva ([2]; PS and its metabolites): 26.7 µM; Cmax, cornea ([2]; PS and its metabolites): 101.3 μm

From patent US20220233556A1, “COMPOSITIONS AND METHODS FOR TREATING OPHTHALMIC CONDITIONS” (Medicon Pharmaceuticals, Inc., priority 2017, published 2022)
